Values after ≈ are worked out from the molar mass of the structure shown.
Key:
Test in all cases: microbe, parasite or virus in culture
Assay type in all cases: cell-based
[1] = tested on: M. tuberculosis H37Rv isogenic strain resistant to streptomycin (SMr); conditions: Mycobacterium tuberculosis, read-out: MABA MIC SMr
[2] = tested on: M. tuberculosis H37Rv isogenic strain resistant to kanamycin (KMr); conditions: Mycobacterium tuberculosis, read-out: MABA MIC KMr
[3] = tested on: M. tuberculosis H37Rv isogenic strain resistant to rifampin (RMPr); conditions: Mycobacterium tuberculosis, read-out: MABA MIC RMPr
[4] = tested on: M. tuberculosis H37Rv isogenic strain resistant to moxifloxacin (MOXr); conditions: Mycobacterium tuberculosis, read-out: MABA MIC MOXr
[5] = tested on: M. tuberculosis H37Rv isogenic strain resistant to cycloserine (CSr); conditions: Mycobacterium tuberculosis, read-out: MABA MIC CSr
[6] = tested on: M. tuberculosis H37Rv isogenic strain resistant to isoniazid (INHr); conditions: Mycobacterium tuberculosis, read-out: MABA MIC INHr

CO[C@H]1/C=C/O[C@@]2(C)Oc3c(C)c(O)c4c(O)c(c(/C=N/N5CCN(C)CC5)c(O)c4c3C2=O)NC(=O)/C(C)=C\C=C\[C@H](C)[C@H](O)[C@@H](C)[C@@H](O)[C@@H](C)[C@H](OC(C)=O)[C@@H]1C [Rifampin, reference compound]
MIC [1]: 0.08 µg/mL (≈ 0.0972 µM)
MIC [2]: 0.02 µg/mL (≈ 0.0243 µM)
MIC [3]: > 3.3 µg/mL
MIC [4]: 0.02 µg/mL (≈ 0.0243 µM)
MIC [5]: 0.01 µg/mL (≈ 0.0122 µM)
MIC [6]: 0.02 µg/mL (≈ 0.0243 µM)

CC(C)=C[C@@H]1C[C@H](C)[C@H]2CC[C@H](C)c3c2c1c(C)c1ncoc31 [Compound 1, pseudopteroxazole]
MIC [1]: 14 µg/mL (≈ 45.2 µM)
MIC [2]: 16 µg/mL (≈ 51.7 µM)
MIC [3]: 8 µg/mL (≈ 25.9 µM)
MIC [4]: 8 µg/mL (≈ 25.9 µM)
MIC [5]: 14 µg/mL (≈ 45.2 µM)
MIC [6]: 8 µg/mL (≈ 25.9 µM)

NNC(=O)c1ccncc1 [Isoniazid]
MIC [1]: 0.13 µg/mL (≈ 0.948 µM)
MIC [2]: 0.13 µg/mL (≈ 0.948 µM)
MIC [3]: 0.12 µg/mL (≈ 0.875 µM)
MIC [4]: 0.03 µg/mL (≈ 0.219 µM)
MIC [5]: 0.12 µg/mL (≈ 0.875 µM)
MIC [6]: > 1.1 µg/mL
